Laboratory results published in patent US7767659B2, “Synthesis of naturally occurring ecteinascidins and related compounds” (Pharma Mar, S.A., priority 2002, dated 2010).

What was measured:
[1] = test system: LoVo; test: cells; details: Homo sapiens, LoVo, 48 h; for GI50: read-out: LOVO GI50; for CC50: read-out: LOVO LC50; for IC (TGI): read-out: LOVO TGI
Summary of the method: (§1)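 Colorimetric SRB read (490 nm) on triplicate wells after 48 h at 37 °C, 5% CO2. Dose range 10 to 10^−8 μg/ml; 5×10^3 cells/well pre-attached 18 h.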

[2] = test system: HT-29; test: cells; details: Homo sapiens, HT-29, 48 h; for GI50: read-out: HT29 GI50; for CC50: read-out: HT29 LC50; for IC (TGI): read-out: HT29 TGI
Summary of the method: as §1

[3] = test system: A-549; test: cells; details: Homo sapiens, A549, 48 h; for GI50: read-out: A549 GI50; for CC50: read-out: A549 LC50; for IC (TGI): read-out: A549 TGI
Summary of the method: as §1

[4] = test system: PANC-1; test: Inhibition of cells growth by colorimetric assay (SRB); details: Homo sapiens, PANC-1, 48 h; for GI50: read-out: PANC-1 GI50; for CC50: read-out: PANC-1 LC50; for IC (TGI): read-out: PANC-1 TGI
Summary of the method: as §1

[5] = test system: SK-MEL-28; test: as above; details: Homo sapiens, SK-MEL-28, 48 h; for GI50: read-out: MEL-28 GI50; for CC50: read-out: MEL-28 LC50; for IC (TGI): read-out: MEL-28 TGI
Summary of the method: as §1

[6] = test system: IGROV-1; test: as above; details: Homo sapiens, IGROV-1, 48 h; for GI50: read-out: IGROV GI50; for CC50: read-out: IGROV LC50; for IC (TGI): read-out: IGROV TGI
Summary of the method: as §1

[7] = test system: DU-145; test: as above; details: Homo sapiens, DU-145, 48 h; for GI50: read-out: DU145 GI50; for CC50: read-out: DU145 LC50; for IC (TGI): read-out: DU145 TGI
Summary of the method: as §1

[8] = test system: IGROV-ET; test: as above; details: Homo sapiens, 48 h; for GI50: read-out: IGROV-ET GI50; for CC50: read-out: IGROV-ET LC50; for IC (TGI): read-out: IGROV-ET TGI
Summary of the method: as §1

[9] = test system: LoVo-Dox; test: as above; details: Homo sapiens, 48 h; for GI50: read-out: LOVO-DOX GI50; for CC50: read-out: LOVO-DOX LC50; for IC (TGI): read-out: LOVO-DOX TGI
Summary of the method: as §1

[10] = test system: HeLa-APL; test: as above; details: Homo sapiens, 48 h; for GI50: read-out: HELA-APL GI50; for CC50: read-out: HELA-APL LC50; for IC (TGI): read-out: HELA-APL TGI
Summary of the method: as §1

[11] = test system: K-562; test: as above; details: Homo sapiens, K562, 48 h; for GI50: read-out: K562 GI50; for CC50: read-out: K562 LC50; for IC (TGI): read-out: K562 TGI
Summary of the method: as §1

[12] = test system: LNCaP; test: as above; details: Homo sapiens, LNCaP, 48 h; for GI50: read-out: LNCAP GI50; for CC50: read-out: LNCAP LC50; for IC (TGI): read-out: LNCAP TGI
Summary of the method: as §1

[13] = test system: SK-BR-3; test: as above; details: Homo sapiens, SK-BR-3, 48 h; for GI50: read-out: SK-BR3 GI50; for CC50: read-out: SK-BR3 LC50; for IC (TGI): read-out: SK-BR3 TGI
Summary of the method: as §1

[14] = test system: HeLa; test: as above; details: Homo sapiens, HeLa, 48 h; for GI50: read-out: HELA GI50; for CC50: read-out: HELA LC50; for IC (TGI): read-out: HELA TGI
Summary of the method: as §1

Which results are given for `C=CCN1[C@@H]2c3c(cc(C)c(OC)c3O)C[C@H]1[C@H](C#N)N1C2[C@@H]2SC[C@]3(NCCc4cc(OC(=O)OC(C)(C)C)c(OC)cc43)C(=O)OC[C@H]1c1c3c(c(C)c(OC(=O)CCCCCCC)c12)OCO3` (stereo partly drawn) [compound 48]?
GI50 [1]: 4.01 µM; CC50 [1]: 10.2 µM; IC (TGI) [1]: 10.2 µM; GI50 [2]: 6.71 µM; CC50 [2]: 10.2 µM; IC (TGI) [2]: 10.2 µM; GI50 [3]: 8.1 µM; CC50 [3]: 10.2 µM; IC (TGI) [3]: 10.2 µM; GI50 [4]: 4.42 µM; CC50 [4]: 10.2 µM; IC (TGI) [4]: 10.2 µM; GI50 [5]: 3.19 µM; CC50 [5]: 10.2 µM; IC (TGI) [5]: 10.2 µM; GI50 [6]: 3.52 µM; CC50 [6]: 10.2 µM; IC (TGI) [6]: 10.2 µM; GI50 [7]: 2.55 µM; CC50 [7]: 10.2 µM; IC (TGI) [7]: 6.26 µM; GI50 [8]: 3.72 µM; CC50 [8]: 10.2 µM; IC (TGI) [8]: 10.2 µM; GI50 [9]: 10.2 µM; CC50 [9]: 10.2 µM; IC (TGI) [9]: 10.2 µM; GI50 [10]: 1.87 µM; CC50 [10]: 7.87 µM; IC (TGI) [10]: 3.83 µM; GI50 [11]: 0.515 µM; CC50 [11]: 10.2 µM; IC (TGI) [11]: 2.73 µM; GI50 [12]: 1.67 µM; CC50 [12]: 6.31 µM; IC (TGI) [12]: 3.24 µM; GI50 [13]: 0.682 µM; CC50 [13]: 10.2 µM; IC (TGI) [13]: 4 µM; GI50 [14]: 2.17 µM; CC50 [14]: 10.2 µM; IC (TGI) [14]: 5.11 µM

With `C=CCN1[C@@H]2c3c(cc(C)c(OC)c3O)C[C@H]1[C@H](C#N)N1C2[C@@H]2SC[C@]3(NCCc4cc(OC(=O)OC(C)(C)C)c(OC)cc43)C(=O)OC[C@H]1c1c3c(c(C)c(OC(C)=O)c12)OCO3` (stereo partly drawn) [compound 44] as the compound, how does the GI50 [1] read?
The GI50 was 0.0339 µM.

What about the CC50 [1] of the same compound?
The CC50 was 11.1 µM.

What about the IC (TGI) [1] of the same compound?
Its IC (TGI) is 0.143 µM.

And the GI50 [2]?
The GI50 was 0.0388 µM.

What about the CC50 [2] of the same compound?
Its CC50 is 11.1 µM.

And the IC (TGI) [2]?
The IC (TGI) was 1.54 µM.

What about the GI50 [3] of the same compound?
The GI50 was 0.0274 µM.

And the CC50 [3]?
Its CC50 is 0.47 µM.

And the IC (TGI) [3]?
Its IC (TGI) is 0.0567 µM.

And the GI50 [4]?
Its GI50 is 0.0752 µM.

What about the CC50 [4] of the same compound?
The CC50 was 11.1 µM.

And the IC (TGI) [4]?
The IC (TGI) was 0.344 µM.

And the GI50 [5]?
Its GI50 is 0.0234 µM.

And the CC50 [5]?
The CC50 was 0.0901 µM.

And the IC (TGI) [5]?
The IC (TGI) was 0.0459 µM.

What about the GI50 [6] of the same compound?
The GI50 was 0.0326 µM.

And the CC50 [6]?
Its CC50 is 11.1 µM.

What about the IC (TGI) [6] of the same compound?
The IC (TGI) was 0.078 µM.

What about the GI50 [7] of the same compound?
Its GI50 is 0.0234 µM.

And the CC50 [7]?
Its CC50 is 11.1 µM.

What about the IC (TGI) [7] of the same compound?
Its IC (TGI) is 0.0719 µM.

What about the GI50 [8] of the same compound?
Its GI50 is 0.0492 µM.

What about the CC50 [8] of the same compound?
Its CC50 is 11.1 µM.

What about the IC (TGI) [8] of the same compound?
The IC (TGI) was 0.443 µM.

What about the GI50 [9] of the same compound?
Its GI50 is 0.297 µM.

And the CC50 [9]?
Its CC50 is 11.1 µM.

What about the IC (TGI) [9] of the same compound?
Its IC (TGI) is 0.919 µM.

And the GI50 [10]?
The GI50 was 0.025 µM.

What about the CC50 [10] of the same compound?
The CC50 was 0.352 µM.

And the IC (TGI) [10]?
Its IC (TGI) is 0.0596 µM.

What about the GI50 [11] of the same compound?
Its GI50 is 0.00797 µM.

And the CC50 [11]?
Its CC50 is 11.1 µM.

And the IC (TGI) [11]?
The IC (TGI) was 0.0779 µM.

And the GI50 [12]?
Its GI50 is 0.00453 µM.

What about the CC50 [12] of the same compound?
The CC50 was 0.048 µM.

And the IC (TGI) [12]?
Its IC (TGI) is 0.0204 µM.

And the GI50 [13]?
The GI50 was 0.00327 µM.

And the CC50 [13]?
Its CC50 is 0.0761 µM.

And the IC (TGI) [13]?
Its IC (TGI) is 0.0119 µM.

What about the GI50 [14] of the same compound?
The GI50 was 0.0202 µM.

What about the CC50 [14] of the same compound?
Its CC50 is 0.0875 µM.

And the IC (TGI) [14]?
Its IC (TGI) is 0.042 µM.
